Columns and labels:
[1] = molecular target: Proto-oncogene tyrosine-protein kinase Src (Homo sapiens, UniProt P12931)
Description: Inhibition of human SRC by radiometric assay

[2] = molecular target: Tyrosine-protein kinase ABL1 (Homo sapiens, UniProt P00519)
Sequence of Tyrosine-protein kinase ABL1 (P00519 whole entry): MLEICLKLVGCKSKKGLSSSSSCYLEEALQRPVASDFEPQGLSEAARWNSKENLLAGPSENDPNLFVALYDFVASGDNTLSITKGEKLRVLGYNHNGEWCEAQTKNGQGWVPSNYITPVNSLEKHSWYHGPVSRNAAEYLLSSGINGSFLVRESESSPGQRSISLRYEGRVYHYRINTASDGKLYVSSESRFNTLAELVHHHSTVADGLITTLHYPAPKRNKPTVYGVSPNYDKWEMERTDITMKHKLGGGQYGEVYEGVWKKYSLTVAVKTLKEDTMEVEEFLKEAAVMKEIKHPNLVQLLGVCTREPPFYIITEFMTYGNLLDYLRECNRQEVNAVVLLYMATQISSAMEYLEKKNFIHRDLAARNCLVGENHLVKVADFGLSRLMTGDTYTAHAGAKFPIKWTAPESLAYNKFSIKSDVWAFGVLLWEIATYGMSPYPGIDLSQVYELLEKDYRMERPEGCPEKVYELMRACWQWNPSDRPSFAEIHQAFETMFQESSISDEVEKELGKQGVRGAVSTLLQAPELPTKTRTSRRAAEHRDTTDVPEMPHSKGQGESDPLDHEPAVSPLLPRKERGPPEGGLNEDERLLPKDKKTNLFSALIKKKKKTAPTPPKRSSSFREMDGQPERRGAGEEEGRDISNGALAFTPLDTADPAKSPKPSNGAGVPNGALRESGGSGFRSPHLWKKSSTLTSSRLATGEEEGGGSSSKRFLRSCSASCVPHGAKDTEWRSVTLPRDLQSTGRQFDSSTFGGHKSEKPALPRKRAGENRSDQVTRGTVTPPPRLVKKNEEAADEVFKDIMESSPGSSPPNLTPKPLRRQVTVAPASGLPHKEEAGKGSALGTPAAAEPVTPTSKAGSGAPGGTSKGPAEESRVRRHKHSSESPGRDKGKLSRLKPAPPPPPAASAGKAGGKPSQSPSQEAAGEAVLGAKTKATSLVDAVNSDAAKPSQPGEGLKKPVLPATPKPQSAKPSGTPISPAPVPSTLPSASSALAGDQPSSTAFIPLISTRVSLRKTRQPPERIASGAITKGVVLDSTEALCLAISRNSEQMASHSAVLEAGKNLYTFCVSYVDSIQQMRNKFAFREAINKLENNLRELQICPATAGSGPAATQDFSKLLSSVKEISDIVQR
Description: Inhibition of human ABL by radiometric assay

Sequence of Proto-oncogene tyrosine-protein kinase Src (P12931 2-536 limits assumed): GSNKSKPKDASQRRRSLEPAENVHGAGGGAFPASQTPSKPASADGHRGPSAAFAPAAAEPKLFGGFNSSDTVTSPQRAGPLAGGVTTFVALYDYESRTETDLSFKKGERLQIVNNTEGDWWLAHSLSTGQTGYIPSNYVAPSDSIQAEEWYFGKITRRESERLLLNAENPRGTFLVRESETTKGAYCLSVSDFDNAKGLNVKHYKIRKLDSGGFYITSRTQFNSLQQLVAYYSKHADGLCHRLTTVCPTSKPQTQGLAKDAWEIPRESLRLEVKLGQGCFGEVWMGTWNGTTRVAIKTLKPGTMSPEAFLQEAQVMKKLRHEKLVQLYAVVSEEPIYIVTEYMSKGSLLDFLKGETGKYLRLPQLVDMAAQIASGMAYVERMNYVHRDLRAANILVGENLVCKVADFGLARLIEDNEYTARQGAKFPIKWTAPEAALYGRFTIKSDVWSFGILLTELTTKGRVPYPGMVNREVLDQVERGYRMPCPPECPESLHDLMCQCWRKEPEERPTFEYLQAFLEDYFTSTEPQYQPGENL

Row | Compound | Ki [1] | Ki [2]
1 | COc1ccc2cc(-c3nn(C(C)C)c4ncnc(N)c34)ccc2c1 | 0.77 µM | –
2 | COc1ccc2cc(-c3nn(CC4CCNCC4)c4ncnc(N)c34)ccc2c1 | > 20 µM | > 15 µM
3 | CCOc1ccc2cc(-c3nn(CC4CCNCC4)c4ncnc(N)c34)ccc2c1 | > 20 µM | > 15 µM
4 | Nc1ncnc2c1c(-c1cnc3ccccc3c1)nn2CC1CCNCC1 | > 20 µM | > 15 µM
5 | CC(C)n1nc(-c2cc3c(Cl)cccc3[nH]2)c2c(N)ncnc21 | 1.24 µM | –
6 | Nc1ncnc2c1cnn2CC1CCNCC1 | > 10 µM | > 10 µM
7 | Nc1nc2ccc(C(=O)c3ccccc3)cc2[nH]1 | > 10 µM | 10 µM
8 | Nc1nc2ccc(C(=O)c3ccccc3)cc2n1CC1CCNCC1 | > 10 µM | > 10 µM
9 | COC(=O)Nc1nc2ccc(C(=O)c3ccccc3)cc2[nH]1 [MEBENDAZOLE] | – | 4.6 µM

From ChEMBL document CHEMBL2029213, “Multiple determinants for selective inhibition of apicomplexan calcium-dependent protein kinase CDPK1” (J Med Chem, 2012)
